Here are results for 11 compounds from ChEMBL document CHEMBL1201862, “PubChem BioAssay data set” (2004).

Molecules are shown by their SMILES.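 Cultured in 96-well plates, cells were exposed to test compound for 48 hours across five concentrations. Here, GI50 denotes the concentration required for 50% inhibition of growth.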 Active and inactive are the calls of the source. Cut-off read from the data, not from the text of the source: active = GI50 up to about 1.1 µM and inactive = higher.

Among the test systems are RPMI-8226; SR; M14; CCRF-CEM; SN12C; TK-10; HCC 2998; COLO 205; PC-3; SF-295; HOP-62; NCI-H522; HT-29; U-251; HOP-92; OVCAR-5; CAKI-1; UACC-257.
Test in all cases: inhibition of tumour cell growth, NCI panel, 48 h

As for `CN(C)CCCN1c2ccccc2Sc2ccc3ccccc3c21`, the GI50 is 2.48 µM (inactive) with RPMI-8226; 1.09 µM (active) in the experiment on SR; 1.79 µM (inactive) in the experiment with M14; 2.23 µM (inactive) in the experiment with CCRF-CEM; 9.06 µM (inactive) in the experiment on SN12C; 4.45 µM (inactive) in the experiment with TK-10. In addition, the GI50 in the experiment on HCC 2998 was 1.53 µM (inactive); with COLO 205 it was 4.56 µM (inactive); in the experiment on PC-3 it was 3.75 µM (inactive); in the experiment on SF-295, 13.2 µM (inactive); with HOP-62, 12 µM (inactive); with NCI-H522 it was 7.94 µM (inactive). The GI50 in the experiment on HT-29 was 3.52 µM (inactive); in the experiment on U-251, 7.23 µM (inactive); in the experiment with HOP-92, 5.52 µM (inactive); in the experiment with OVCAR-5, 11.3 µM (inactive); in the experiment with CAKI-1 it was 5.13 µM (inactive); in the experiment on UACC-257 it was 1.84 µM (inactive).
`COc1ccc(N2N=NN(C(C)C)/C2=C(/Cl)c2nnnn2-c2ccc(OC)cc2)cc1`: the GI50 is 8.99 µM (inactive) in the experiment on RPMI-8226; 2.98 µM (inactive) with SR; 8.81 µM (inactive) with M14; 1.83 µM (inactive) in the experiment on CCRF-CEM; 14.3 µM (inactive) in the experiment with SN12C; 16.2 µM (inactive) in the experiment with TK-10. In addition, the GI50 was 19.5 µM (inactive) in the experiment on HCC 2998; 3.72 µM (inactive) in the experiment on COLO 205; 14.6 µM (inactive) in the experiment with PC-3; 16.6 µM (inactive) with SF-295; 21 µM (inactive) with HOP-62; 2.76 µM (inactive) with NCI-H522. In addition, the GI50 is 10.2 µM (inactive) in the experiment on HT-29; 17.5 µM (inactive) in the experiment on U-251; 2.25 µM (inactive) with HOP-92; 13.6 µM (inactive) with OVCAR-5; 1.75 µM (inactive) in the experiment with CAKI-1; 15.3 µM (inactive) with UACC-257.
Turning to `CC(C)/C(Cl)=N/OC(=O)Nc1ccc(Cl)c(Cl)c1`, the GI50 with RPMI-8226 was 2.36 µM (inactive); with SR, 2.49 µM (inactive); with M14, 2.45 µM (inactive); in the experiment on CCRF-CEM, 0.851 µM (active); in the experiment with SN12C, 1.91 µM (inactive); in the experiment with TK-10, 5.86 µM (inactive). Besides, the GI50 in the experiment with HCC 2998 was 14.9 µM (inactive); with COLO 205, 1.83 µM (inactive); in the experiment with PC-3, 16.6 µM (inactive); with SF-295 it was 17.7 µM (inactive); in the experiment with HOP-62, 18.2 µM (inactive); in the experiment with NCI-H522, 1.58 µM (inactive). Besides, the GI50 in the experiment on HT-29 is 5.48 µM (inactive); in the experiment with U-251, 21.2 µM (inactive); with HOP-92 it was 1.72 µM (inactive); in the experiment on OVCAR-5 it was 16 µM (inactive); in the experiment with CAKI-1 it was 1.75 µM (inactive); in the experiment with UACC-257 it was 14.6 µM (inactive).
With `CSc1ncnc2c1cnn2Cc1cn(CCCCO)nn1`, the GI50 in the experiment on RPMI-8226, in the experiment with SR, with M14, in the experiment with CCRF-CEM, in the experiment on SN12C and in the experiment on TK-10 was > 100 µM (inactive) throughout. Further, the GI50 in the experiment on HCC 2998, with COLO 205, in the experiment on PC-3, in the experiment with SF-295, in the experiment with HOP-62 and in the experiment with NCI-H522 was > 100 µM (inactive) each time. Besides, the GI50 with HT-29, with U-251, with HOP-92, with OVCAR-5, with CAKI-1 and in the experiment on UACC-257 was > 100 µM (inactive) each time.
For `CC(C)(CO)NC1=C(Cl)C(=O)c2c(O)ccc(O)c2C1=O`, the GI50 in the experiment on RPMI-8226 was 2.05 µM (inactive); in the experiment with SR, 0.267 µM (active); with M14, 0.865 µM (active); in the experiment on CCRF-CEM, 0.33 µM (active); in the experiment with SN12C, 1.56 µM (inactive); in the experiment on TK-10 it was 1.88 µM (inactive). Further, the GI50 in the experiment with HCC 2998 was 1.43 µM (inactive); in the experiment on COLO 205, 1.22 µM (inactive); in the experiment with PC-3 it was 1.87 µM (inactive); in the experiment on SF-295, 1.7 µM (inactive); with HOP-62, 1.56 µM (inactive); in the experiment with NCI-H522, 0.316 µM (active). For the same compound, the GI50 in the experiment on HT-29 was 1.31 µM (inactive); in the experiment with U-251, 1.73 µM (inactive); in the experiment with HOP-92, 1.85 µM (inactive); in the experiment with OVCAR-5, 1.65 µM (inactive); in the experiment on CAKI-1, 1.96 µM (inactive); in the experiment on UACC-257, 1.71 µM (inactive).
For the compound `O=C(O)c1c(CC(Cc2ccc3c(c2)CCCC3)C(=O)O)ccc2c1CCCC2` (stereo not drawn), the GI50 in the experiment on RPMI-8226, in the experiment on SR, with M14, in the experiment with CCRF-CEM, with SN12C and in the experiment on TK-10 was > 100 µM (inactive) in each case. In addition, the GI50 in the experiment with HCC 2998, with COLO 205, with PC-3, with SF-295, in the experiment with HOP-62 and in the experiment with NCI-H522 was > 100 µM (inactive) each time. For the same compound, the GI50 with HT-29, in the experiment on U-251, with HOP-92, with OVCAR-5, with CAKI-1 and in the experiment with UACC-257 was > 100 µM (inactive) throughout.
Take `CCCCCCCCCCCCCCCCOP(=O)(O)OCC(N)C(=O)O` (stereo not drawn): the GI50 with RPMI-8226 is 18.6 µM (inactive); with SR, 33 µM (inactive); with M14 it was 24.8 µM (inactive); in the experiment on CCRF-CEM, 22.8 µM (inactive); in the experiment with SN12C, 18.3 µM (inactive); in the experiment with TK-10 it was 5.02 µM (inactive). The GI50 with HCC 2998 was 15.1 µM (inactive); in the experiment with COLO 205 it was 20.7 µM (inactive); with PC-3 it was 12 µM (inactive); in the experiment on SF-295 it was 14.5 µM (inactive); with HOP-62, 25 µM (inactive); in the experiment with NCI-H522 it was 20.3 µM (inactive). For the same compound, the GI50 with HT-29 was 33 µM (inactive); with U-251, 12.9 µM (inactive); with HOP-92, 19.5 µM (inactive); in the experiment on OVCAR-5 it was 20.4 µM (inactive); with CAKI-1, 13 µM (inactive); in the experiment with UACC-257 it was 52.5 µM (inactive).
`COC(=O)c1c2c(cc3c1CC1(C3)Cc3cc4c(c(C(C)=O)c3C1)CCC4)C=CC2` (stereo not drawn): the GI50 is 14.2 µM (inactive) in the experiment on RPMI-8226; 20.8 µM (inactive) in the experiment with SR; > 31.6 µM (inactive) with M14; 20.7 µM (inactive) with CCRF-CEM; > 31.6 µM (inactive) with SN12C; > 31.6 µM (inactive) in the experiment on TK-10. The GI50 in the experiment with HCC 2998 is > 10 µM (inactive); with COLO 205, > 31.6 µM (inactive); in the experiment on PC-3 it was > 31.6 µM (inactive); in the experiment on SF-295, > 31.6 µM (inactive); in the experiment with HOP-62, > 31.6 µM (inactive); in the experiment with NCI-H522 it was 27.6 µM (inactive). For the same compound, the GI50 in the experiment with HT-29 is 18.7 µM (inactive); with U-251, > 31.6 µM (inactive); with HOP-92, > 31.6 µM (inactive); with OVCAR-5, > 31.6 µM (inactive); in the experiment on CAKI-1, 44.2 µM (inactive); with UACC-257, > 31.6 µM (inactive).
With `CC(C)(C)[Si](C)(C)OCC1OC(n2cnc3c(=O)[nH]c(N)nc32)C(O[Si](C)(C)C(C)(C)C)C1O[Si](C)(C)C(C)(C)C` (stereo not drawn), the GI50 with RPMI-8226 is 1.14 µM (inactive); with SR, 2.39 µM (inactive); with M14, 1.5 µM (inactive); in the experiment with CCRF-CEM, 1.3 µM (inactive); in the experiment on SN12C, 2.2 µM (inactive); in the experiment with TK-10, 2.34 µM (inactive). Moreover, the GI50 in the experiment with HCC 2998 is 1.98 µM (inactive); with COLO 205, 1.72 µM (inactive); in the experiment on PC-3, 1.55 µM (inactive); with SF-295, 1.55 µM (inactive); in the experiment on HOP-62 it was 2.64 µM (inactive); with NCI-H522 it was 1.68 µM (inactive). Moreover, the GI50 with HT-29 is 1.8 µM (inactive); with U-251 it was 1.78 µM (inactive); in the experiment on HOP-92 it was 2.61 µM (inactive); in the experiment with OVCAR-5 it was 2.33 µM (inactive); in the experiment with CAKI-1, 10.9 µM (inactive); in the experiment on UACC-257, 1.78 µM (inactive).
For `NCCCCNCCCN1CC1`, the GI50 is 8 µM (inactive) in the experiment on RPMI-8226; 2.29 µM (inactive) in the experiment on SR; 2.89 µM (inactive) in the experiment with M14; 0.951 µM (active) with CCRF-CEM; 1.19 µM (inactive) with SN12C; 2.04 µM (inactive) in the experiment with TK-10. In addition, the GI50 with HCC 2998 was 5.73 µM (inactive); in the experiment with COLO 205 it was 0.871 µM (active); in the experiment on PC-3, 5.22 µM (inactive); in the experiment on SF-295, 4.09 µM (inactive); in the experiment on HOP-62 it was 0.92 µM (active); in the experiment with NCI-H522, 2.47 µM (inactive). Besides, the GI50 in the experiment on HT-29 was 4.55 µM (inactive); with U-251, 1.3 µM (inactive); in the experiment on HOP-92 it was 0.279 µM (active); in the experiment with OVCAR-5, 5.27 µM (inactive); in the experiment on CAKI-1 it was 0.0893 µM (active); in the experiment with UACC-257, 5.06 µM (inactive).
In the case of `CC1=CC(=O)[C@@H](O)[C@]2(C)[C@H]3[C@@]4(O)OC[C@@]35[C@@H](C[C@@H]12)OC(=O)C(OC(=O)CC1=CCCC1)[C@H]5[C@@H](C)[C@H]4O` (stereo partly drawn), the GI50 is < 0.0124 µM (active) in the experiment on RPMI-8226; 0.0168 µM (active) with SR; 0.0294 µM (active) in the experiment with M14; 0.0197 µM (active) in the experiment with CCRF-CEM; 0.0481 µM (active) with SN12C; 0.0408 µM (active) with TK-10. The GI50 in the experiment on HCC 2998 was 0.04 µM (active); with COLO 205 it was 0.24 µM (active); with PC-3, 0.0311 µM (active); in the experiment on SF-295 it was 0.0649 µM (active); in the experiment with HOP-62, 0.024 µM (active); in the experiment on NCI-H522 it was 0.0178 µM (active). Further, the GI50 was 0.0238 µM (active) with HT-29; 0.0158 µM (active) in the experiment on U-251; 0.0548 µM (active) in the experiment with HOP-92; 0.105 µM (active) with OVCAR-5; 0.167 µM (active) in the experiment on CAKI-1; 0.022 µM (active) in the experiment with UACC-257.
